The results in this text go back to PMC6804243, “Small-Molecule Inhibition of UBE2T/FANCL-Mediated Ubiquitylation in the Fanconi Anemia Pathway” (ACS Chemical Biology, 2019).

Molecules are shown by their SMILES. Entries after “also recorded” stand apart in the source; their conditions may differ.

For the assay, the system named is FANCD2 foci and γH2AX in U2OS cells. Briefly: High-throughput high content indirect immunofluorescence (FANCD2 foci, γH2AX). Particulars: for γH2AX positive cells / γH2AX levels: CU1 200 μM or CU2 500 μM in combination with HU (2.5 mM, 8 h) or cisplatin (10 μM, 8 h); for H2AX positive nuclei, Experiment 1 / H2AX positive nuclei, Experiment 2 / H2AX positive nuclei, Experiment 3: CU1 200 μM, raw data; for H2AX positive nuclei, Experiment 1 / H2AX positive nuclei, Experiment 2 / H2AX positive nuclei, Experiment 3 / H2AX positive nuclei, Totals: CU2 500 μM, HU 2.5 mM 8 h, cisplatin 10 μM 8 h; for number of FANCD2 foci per cell: 8 h, CU1 200 μM or CU2 500 μM; for H2AX positive nuclei, Totals: sum of experiments 1-3, CU1 200 μM. Type of assay: cell-based. The procedure:
In response to DNA damage, mUb-FANCD2 accumulates at sites of DNA lesions to form foci, promote DNA-damage sensing, activate cell-cycle checkpoints, and promote DNA repair.[23] Therefore, we employed high-throughput high-content indirect immunofluorescence studies to examine the effect of CU1 and CU2 on mUb-FANCD2 focus formation. The experimental format used was similar to the immunoblot-based experiments, excepting that, following treatment with HU (2.5 mM for 8 h) or cisplatin (10 μM for 8 h), cells were fixed, permeabilized and stained with specific FANCD2 primary and fluorescent secondary antibodies. In addition to monitoring mUb-FANCD2 foci, γH2AX was evaluated as a marker of DNA damage induction, and cell nuclei were visualized by 4′,6-diamidino-2-phenylindole (DAPI) staining. […] These observations are in accord with the immunoblot-based experiments wherein reductions in mUb-FANCD2 were observed (Figure 3a).
Figure 4 Further cell-based assays with CU1 and CU2: (a, b) Representative immunofluorescence images of U2OS cells treated with HU (2.5 mM, 8 h) or cisplatin (10 μM, 8 h) in the presence or absence of CU1 (200 μM) or CU2 (500 μM). (c) Quantification of the number of FANCD2 foci in cells treated as in panels (a) and (b). Data accumulated over three independent experiments, each consisting of three technical replicas. (d) IncuCyte analysis of U2OS cells treated with or without carboplatin (15 μM) and CU2 (250 μM). Mean calculated from three wells, four images per well. (HU = DMSO + HU, cisplatin = DMSO + cisplatin). […]
buffer (1 hour at room temperature) followed by three washes with PBST. Cells were then counterstained with DAPI (25 µg/mL) and mounted using Vectashield […]
High-throughput high content indirect immunofluorescence. U2OS cells, seeded in a 96-well plate, were treated with compound for 1 hour followed by 2.5 mM HU or 10 µM cisplatin for 8 hours. Cells were washed 3 times with wash buffer (1xPBS, 0.1% Tween-20) before being fixed in 2% paraformaldehyde (w/v) for 20 minutes at 23 °C. The cells were then washed a further 3 times in wash buffer before being stored overnight at 4°C in the final wash. Next day, the cells were permeabilized using 1xPBS, 0.5% Triton X-100 for 15 minutes at 23 °C and then washed 3 times with wash buffer before blocking with 5% BSA in 1xPBS, 0.1% Tween-20 for 30 minutes at 23 °C. After washing 3 times with wash buffer, the cells were incubated for 1 hour at 23 °C in the presence of primary antibodies (1:50 FANCD2, Santa Cruz, mouse monoclonal and 1:250 γH2AX, Cell Signalling, rabbit) in 5% BSA in wash buffer. After incubation in the presence of primary antibodies, the cells were washed 3 times with wash buffer before being incubated with secondary antibodies in 5% BSA in wash buffer for 1 hour in the dark at 23 °C. The secondary antibodies used were goat anti-mouse AlexaFluor 488 and goat anti-rabbit AlexaFluor 594 (both from Molecular Probes, Invitrogen). The cells were then washed a further 3 times with wash buffer before being stained in the presence of 2 µg/ml DAPI (Sigma D9542) in wash buffer for 10 minutes in the dark at 23 °C. After DAPI staining, the cells were washed 3 more times with wash buffer and stored in the final wash until ready for imaging.
A spinning-disk Opera PhenixTM (Perkin Elmer) microscope equipped with a 40x water immersion objective was employed to acquire 10 confocal images for each well in a single optimized focal plane comprising three fluorescence channels: 405, 488 and 568 nm for DAPI, Alexa Fluor 488 and Alexa Fluor 594, respectively. Image analysis and evaluation was done using Harmony High-Content Imaging and Analysis software. DAPI staining (405 nm) was used to segment nuclei, which were further gated for the presence of γH2AX staining

The mark [1] stands for this setting: in the presence of HU 2.5 mM, relative to HU alone.
Setting [2] is: in the presence of cisplatin 10 μM, relative to cisplatin alone.

`NCCN1C(=O)CC[C@H]2CN(Cc3cccc(-c4ccco4)c3)CC[C@H]21` [CU1]: the “γH2AX positive cells / γH2AX levels” value is “no reduction in γH2AX positive cells; also recorded: do not significantly affect”; the “H2AX positive nuclei, Experiment 1” value is reported as 40; the “H2AX positive nuclei, Experiment 2” value was 279; the “H2AX positive nuclei, Experiment 3” value turned out to be 126. Moreover, the “H2AX positive nuclei, Totals” value was 445. In addition, the “number of FANCD2 foci per cell” value under setting [1] was “clear reduction in the number of FANCD2 foci per cell”. In addition, under setting [2], the “number of FANCD2 foci per cell” value is listed as “clear reduction in the number of FANCD2 foci per cell”.
For `CCN1CCN(c2cc(C)nc3nc(CN4CCCCC4C)nn23)CC1` (centres unmarked) [CU2], the “γH2AX positive cells / γH2AX levels” value is listed as “no reduction in γH2AX positive cells; also recorded: do not significantly affect”; the “H2AX positive nuclei, Experiment 1” value is 56; the “H2AX positive nuclei, Experiment 2” value is reported as 303; the “H2AX positive nuclei, Experiment 3” value is 79. Also, the “H2AX positive nuclei, Totals” value is given as 438. Besides, the “number of FANCD2 foci per cell” value under setting [1] was “clear reduction in the number of FANCD2 foci per cell”. Moreover, the “number of FANCD2 foci per cell” value under setting [2] is “clear reduction in the number of FANCD2 foci per cell”.
